We go through one compound from patent US20080221200A1, “Combination of Organic Compounds” (priority 2005, published 2008).

For assay [1], the system named is non-obese diabetic (NOD) mice. Description: Incidence of insulitis in NOD mice, supplementation in drinking water during pregnancy and lactation. It is filed as in vivo. The settings on record: maternal drinking water through pregnancy and lactation, examined at 12 weeks of age. An excerpt: F. Effect of Vildagliptin and the combination of “Vildagliptin+compound A” on incidence of Insulitis Diabetes-prone non-obese diabetic (NOD) mice in which females develop a 90% rate of autoimmune diabetes by the age of 25 weeks is studied in order to determine the effect of Vildagliptin and the combination of “Vildagliptin+compound A” on insulitis onset and development. Insulitis initiates at 3-5 weeks of age in NOD mice, as leukocytes begin to infiltrate around ducts and venules in both female and male mice. These infiltrates progress toward the islets, which become surrounded by concentric layers of pen-insular lymphocytes (non-destructive peri-insulitis). Destructive intra-islet insulitis then occurs, leading to extensive P cell destruction. All NOD mice display peri-insulitis, whereas intra-insulitis and overt Type 1 diabetes is restricted to about 70-80% of females and about 10-15% of males in the NOD mouse colony used in this instance. […] Mice which are examined and found to have evidence of insulitis, are then further scored as peri-islet (slight), less than 50% area of islet (medium) or more than 50% islet area (heavy), as indicative of the stage and/or severity of insulitis.

The subject of a further assay is mice (NOD). Description: Effect on insulitis in NOD mice dosed intraperitoneally. In kind it is in vivo. The note with it: intraperitoneal, from 4 weeks of age, 3 times a week for four weeks, assessed at 14 weeks. The protocol:
To investigate the effect of Vildagliptin or the combination “Vildagliptin+compound A” on insulitis or type I diabetes mellitus, mice (NOD) with a genetic predisposition to develop IDDM (insulin dependent diabetes mellitus) are treated with Vildagliptin or the combination “Vildagliptin+compound A”. The animals are dosed intraperitoneally from 4 weeks of age, 3 times a week for four weeks. Insulitis is assessed at 14 weeks and scored in a table. The mice are scored according to the method of Beales et al. (European Journal of Pharmacology 357 (1998) 221-225. 3 or more (DMSO and PBS) represents severe grade insulitis and 1-3 represents little infiltration (a score of 1 would represent low grade peri-insulitis).

In the case of `N#C[C@@H]1CCCN1C(=O)CNC12CC3CC(CC(O)(C3)C1)C2` [vildagliptin, (S)-1-[(3-hydroxy-1-adamantyl)amino]acetyl-2-cyano-pyrrolidine], the “insulitis (histological evidence within pancreatic islets)” value in assay [1] was “unexpected good results in reducing insulitis”. For the same compound, the insulitis score entry with mice (NOD) is recorded as “unexpected good results in reducing insulitis”.
